Measurements published in patent US10130633B2, “Compounds” (BAYER PHARMA AKTIENGESELLSCHAFT, priority 2013, dated 2018).
Structures can show the parent of a compound that is named as a salt.

Columns and labels:
[1] = tested on: HCT116 FOP control reporter cell line; test: HCT116 FOPFlash control reporter assay (FOP control vector, non-functional TCF elements); type: cell-based; settings: HCT116 FOP control reporter cells, 36 hours incubation, luciferase expression
From the text: In a parallel approach, HCT116 cells were cotransfected with the FOP control vector and pcDNA3. The FOP vector is identical to the TOP construct, but it contains instead of functional TCF elements a randomized, non-functional sequence. For this transfection a stable transfected cell line was generated as well.

[2] = tested on: constitutive active colorectal cancer cell (CRC) Wnt pathway; test: HCT116 TOPFlash cellular reporter assay (Super TopFlash luciferase), constitutive active Wnt pathway; type: cell-based; settings: HCT116 TOP reporter cells, 36 hours incubation, luciferase expression
Description: In order to discover and characterize small molecules which inhibit the constitutive active colorectal cancer cell (CRC) Wnt pathway, a cellular reporter assay was employed. […] Stable transfectants were generated by cotransfection with pcDNA3 and selection of stable transfected cells with 1 mg/ml G418.

IC50 ([1]; Homo sapiens, HCT-116, 36 h) [nM]	IC50 ([2]; Homo sapiens, HCT-116, 36 h) [nM]	Structure (SMILES)	IC50 [1] [nM]	IC50 [2] [nM]
≥ 50000	545	CN1CCN(CC(=O)Nc2cc(C(=O)Nc3nnc(-c4cccc(C(F)(F)F)c4)s3)ccc2OC(F)(F)F)CC1 [Example 272, 3-{[(4-methylpiperazin-1-yl)acetyl]amino}-4-(trifluoromethoxy)-N-{5-[3-(trifluoromethyl)phenyl]-1,3,4-thiadiazol-2-yl}benzamide]	–	–
≥ 50000	900	CC(C(=O)Nc1cc(C(=O)Nc2nnc(-c3ccccc3)s2)ccc1C(F)(F)F)N1CCN(C)CC1 (stereo not drawn) [Example 129, 3-{[2-(4-methylpiperazin-1-yl)propanoyl]amino}-N-(5-phenyl-1,3,4-thiadiazol-2-yl)-4-(trifluoromethyl)benzamide]	–	–
≥ 50000	209	COc1ccc(NC(=O)c2cnc(-c3ccccc3)s2)cc1NC(=O)C(C)N1CCOCC1 (stereo not drawn) [Example 107, N-(4-methoxy-3-{[2-(morpholin-4-yl)propanoyl]amino}phenyl)-2-phenyl-1,3-thiazole-5-carboxamide]	–	–
≥ 50000	66	O=C(CN1CCCOCC1)Nc1cc(C(=O)Nc2nnc(-c3ccccc3)s2)ccc1OC(F)(F)F [Example 169, 3-[(1,4-oxazepan-4-ylacetyl)amino]-N-(5-phenyl-1,3,4-thiadiazol-2-yl)-4-(trifluoromethoxy)benzamide]	–	–
≥ 50000	152	Cc1cccc(-c2nnc(NC(=O)c3ccc(OC(F)(F)F)c(NC(=O)CN4CCN(C)CC4)c3)s2)c1 [Example 145, N-[5-(3-methylphenyl)-1,3,4-thiadiazol-2-yl]-3-{[(4-methylpiperazin-1-yl)acetyl]amino}-4-(trifluoromethoxy)benzamide]	–	–
26400	87	Cc1ccccc1-c1nnc(NC(=O)c2ccc(OC(F)(F)F)c(NC(=O)CN3CCOCC3)c2)s1 [Example 98, N-[5-(2-methylphenyl)-1,3,4-thiadiazol-2-yl]-3-[(morpholin-4-ylacetyl)amino]-4-(trifluoromethoxy)benzamide]	–	–
≥ 50000	202	O=C(CN1CCOCC1)Nc1cc(C(=O)Nc2cnc(-c3ccccc3)s2)ccc1OC(F)(F)F [Example 122, 3-[(morpholin-4-ylacetyl)amino]-N-(2-phenyl-1,3-thiazol-5-yl)-4-(trifluoromethoxy)benzamide]	–	–

Further lines, the molecule ahead of its results:

Structure (SMILES)	IC50 ([1]; Homo sapiens, HCT-116, 36 h) [nM]	IC50 ([2]; Homo sapiens, HCT-116, 36 h) [nM]	IC50 [1] [nM]	IC50 [2] [nM]
Cc1ccc(C(=O)Nc2nnc(-c3ccccc3)s2)cc1NC(=O)C1(N2CCN(C)CC2)CC1 [Example 157, 4-methyl-3-({[1-(4-methylpiperazin-1-yl)cyclopropyl]carbonyl}amino)-N-(5-phenyl-1,3,4-thiadiazol-2-yl)benzamide hydrochloride (1:1)]	≥ 50000	96.6	–	–
O=C(Nc1nnc(-c2ccccc2)s1)c1ccc(Cl)c(NC(=O)C2(N3CCN(C4CC4)CC3)CC2)c1 [Example 262, 4-chloro-3-({[1-(4-cyclopropylpiperazin-1-yl)cyclopropyl]carbonyl}amino)-N-(5-phenyl-1,3,4-thiadiazol-2-yl)benzamide trifluoroacetate (1:1)]	≥ 50000	195	–	–
CN1CCN(CC(=O)Nc2cc(C(=O)Nc3nnc(-c4ccccc4)s3)ccc2CS(C)(=O)=O)CC1 [Example 104, 3-{[(4-methylpiperazin-1-yl)acetyl]amino}-4-[(methylsulfonyl)methyl]-N-(5-phenyl-1,3,4-thiadiazol-2-yl)benzamide]	≥ 50000	2030	–	–
CN1CCN(C2(C(=O)Nc3cc(C(=O)Nc4ccc(-c5ccccc5F)nc4)ccc3OC3CC3)CC2)CC1 [Example 135, 4-(cyclopropyloxy)-N-[6-(2-fluorophenyl)pyridin-3-yl]-3-({[1-(4-methylpiperazin-1-yl)cyclopropyl]carbonyl}amino)benzamide]	≥ 50000	84.8	–	–
CN1CCN(C2(C(=O)Nc3cc(C(=O)Nc4nnc(-c5ccccc5)s4)ccc3OC3CC3)CC2)CC1 [Example 171, 4-(cyclopropyloxy)-3-({[1-(4-methylpiperazin-1-yl)cyclopropyl]carbonyl}amino)-N-(5-phenyl-1,3,4-thiadiazol-2-yl)benzamide]	≥ 50000	102	–	–
O=C(CN1CCN(CC(F)F)CC1)Nc1cc(C(=O)Nc2ccc(-c3ccccc3F)nc2)ccc1OC(F)(F)F [Example 100, 3-({[4-(2,2-difluoroethyl)piperazin-1-yl]acetyl}amino)-N-[6-(2-fluorophenyl)pyridin-3-yl]-4-(trifluoromethoxy)benzamide]	≥ 50000	858	–	–
C[C@H]1CN(C)CCN1CC(=O)Nc1cc(C(=O)Nc2ccc(-c3ccccc3F)nc2)ccc1OC(F)(F)F [Example 162, 3-({[(2S)-2,4-dimethylpiperazin-1-yl]acetyl}amino)-N-[6-(2-fluorophenyl)pyridin-3-yl]-4-(trifluoromethoxy)benzamide]	≥ 50000	85.5	–	–
O=C(CN1C[C@@H]2C[C@H]1CO2)Nc1cc(NC(=O)c2ccc(-c3cc(F)cc(F)c3)nc2)ccc1OC(F)(F)F [Example 184, 6-(3,5-difluorophenyl)-N-[3-{[(1S,4S)-2-oxa-5-azabicyclo[2.2.1]hept-5-ylacetyl]amino}-4-(trifluoromethoxy)phenyl] nicotinamide]	11000	196	–	–
C[C@@H]1CN(CC(=O)Nc2cc(C(=O)Nc3ccc(-c4ccccc4F)nc3)ccc2OC(F)(F)F)CCN1C [Example 164, 3-({[(3R)-3,4-dimethylpiperazin-1-yl]acetyl}amino)-N-[6-(2-fluorophenyl)pyridin-3-yl]-4-(trifluoromethoxy)benzamide]	≥ 50000	220	–	–
CC(C(=O)Nc1cc(C(=O)Nc2nnc(-c3ccccc3)s2)ccc1CS(C)(=O)=O)N1CCN(C)CC1 (stereo not drawn) [Example 232, 3-{[2-(4-methylpiperazin-1-yl)propanoyl]amino}-4-[(methylsulfonyl)methyl]-N-(5-phenyl-1,3,4-thiadiazol-2-yl)benzamide]	–	–	≥ 50000	2200
COCc1ccc(C(=O)Nc2nnc(-c3ccccc3C)s2)cc1NC(=O)CN1CCN(C)CC1 [Example 177, 4-(methoxymethyl)-N-[5-(2-methylphenyl)-1,3,4-thiadiazol-2-yl]-3-{[(4-methylpiperazin-1-yl)acetyl]amino}benzamide hydrochloride (1:1)]	35000	460	–	–
CC(C(=O)Nc1cc(NC(=O)c2ccc(-c3cc(F)cc(F)c3)nc2)ccc1OC(F)(F)F)N1CCOCC1 (stereo not drawn) [Example 203, 6-(3,5-difluorophenyl)-N-[3-{[2-(morpholin-4-yl)propanoyl]amino}-4-(trifluoromethoxy)phenyl] nicotinamide]	–	–	15200	124
CN1CCN(C2(C(=O)Nc3cc(C(=O)Nc4ccc(-c5ccccc5F)nc4)ccc3OC(F)(F)F)CC2)CC1 [Example 236, N-[6-(2-fluorophenyl)pyridin-3-yl]-3-({[1-(4-methylpiperazin-1-yl)cyclopropyl]carbonyl}amino)-4-(trifluoromethoxy)benzamide]	≥ 50000	276	–	–
CN(C)C1(C(=O)Nc2cc(C(=O)Nc3ccc(-c4cc(F)cc(F)c4)nc3)ccc2OC(F)(F)F)CC1 [Example 251, N-[6-(3,5-difluorophenyl)pyridin-3-yl]-3-({[1-(dimethylamino)cyclopropyl]carbonyl}amino)-4-(trifluoromethoxy)benzamide]	16000	220	–	–
O=C(CN1CCN(C2CC2)CC1)Nc1cc(C(=O)Nc2nnc(-c3ccccc3)s2)ccc1Br [Example 253, 4-bromo-3-{[(4-cyclopropylpiperazin-1-yl)acetyl]amino}-N-(5-phenyl-1,3,4-thiadiazol-2-yl)benzamide]	≥ 50000	4040	–	–
O=C(CN1CCOCC1)Nc1cc(C(=O)Nc2ccc(-c3ccccc3F)nc2)ccc1C(F)(F)F [Example 74, N-[6-(2-fluorophenyl)pyridin-3-yl]-3-[(morpholin-4-ylacetyl)amino]-4-(trifluoromethyl)benzamide]	42200	85.8	–	–
O=C(CN1CCOCC1)Nc1cc(NC(=O)c2cc(-c3ccccc3)[nH]n2)ccc1OC(F)(F)F [Example 124, N-{3-[(morpholin-4-ylacetyl)amino]-4-(trifluoromethoxy)phenyl}-5-phenyl-1H-pyrazole-3-carboxamide]	≥ 50000	–	–	–
CC(C(=O)Nc1cc(C(=O)Nc2nnc(-c3ccccc3)s2)ccc1CS(C)(=O)=O)N1CCN(C)CC1 (stereo not drawn) [Example 230, 3-{[2-(4-methylpiperazin-1-yl)propanoyl]amino}-4-[(methylsulfonyl)methyl]-N-(5-phenyl-1,3,4-thiadiazol-2-yl)benzamide trifluoroacetate (1:1)]	–	720	–	–
COc1ccc(NC(=O)c2ccc(-c3ccccc3)[nH]2)cc1NC(=O)CN1CCOCC1 [Example 24, N-{4-methoxy-3-[(morpholin-4-ylacetyl)amino]phenyl}-5-phenyl-1H-pyrrole-2-carboxamide]	≥ 50000	–	–	–
CC(C(=O)Nc1cc(C(=O)Nc2nnc(-c3ccccc3)s2)ccc1OC(F)(F)F)N1CCOCC1 (stereo not drawn) [Example 242, 3-{[2-(morpholin-4-yl)propanoyl]amino}-N-(5-phenyl-1,3,4-thiadiazol-2-yl)-4-(trifluoromethoxy)benzamide]	–	–	≥ 50000	–
C[C@@H](C(=O)Nc1cc(C(=O)Nc2ccc(-c3ccc(N)cc3)nc2)ccc1OC(F)(F)F)N1CCOCC1 (single isomer, unassigned) [Example 118, N-[6-(4-aminophenyl)pyridin-3-yl]-3-{[(2R)-2-(morpholin-4-yl)propanoyl]amino}-4-(trifluoromethoxy)benzamide or N-[6-(4-aminophenyl)pyridin-3-yl]-3-{[(2S)-2-(morpholin-4-yl)propanoyl]amino}-4-(trifluoromethoxy)benzamide]	–	–	≥ 50000	–
